What was measured:
[1] = test system: CD4+/Foxp3+ T-cells; test: Foxp3 induction in human total PBMCs or sorted T-cells; format: cell-based; conditions: 3 ng/ml; for percentage of CD4+/Foxp3+ T-cells: five days
Description: 2×10^5 Total PBMCs or sorted T-cells (CD3^+) were cultured in 96-well plates in the presence of ascending doses of Compound 2 ranging from 0 to 3 ng/ml for five days. On day 5, cells were washed and stained for CD3 and CD4 for 30 minutes on ice, then cells were washed with PBS and stained with viability dye to exclude dead cells. Stained cells were fixed/permeabilized and further stained for Foxp3. Finally, cells were washed and fixed for acquisition by Attune NXT flow cytometer. Data were analyzed by FlowJov10.

[2] = test system: FoxP3+/CD4+ T-cells (spleen); test: Pharmacodynamics of a single ascending dose in mice, splenic T-cell phenotyping; format: in vivo; conditions: for percent of FoxP3+/CD4+ T-cells, mean: single dose, spleen five days after dose
Description: All animal studies were conducted under IACUC number B2020-91 and in compliance with Tufts University/Tufts Medical Center & Human Nutrition Research Center on Aging. Animals were housed 4 per cage and had access to food and water ad libitum. Compound 2 was formulated with 10% DMSO in PBS buffer.
This study was designed to evaluate the PD effects of a single dose of Compound 2 in mice. Animals were administered a single oral gavage, as per their group assignment. Five days after the oral dose, animals were sacrificed, and their spleens were collected for T-cell phenotyping. FIG. 2A is a schematic diagram of the study design.
For ex vivo analysis, spleens were collected for splenocyte analysis, and prepared into a single-cell suspension for cellular phenotyping by flow cytometry. Cells were stained and gated for CD4. Percent FoxP3+/CD4+ T-cells and percent FoxP3+/NRP1+ were evaluated using flow cytometry. For dose-response analysis, dose versus response was fitted to 4- and 5-parameters, log-logistic models using the “dre” package in “R”. Both EC50 and EC90 were obtained by model fitting.

[3] = test system: human B-cells (CD19+CD71+IgM+); test: Regulatory B-cell induction in human PBMCs; format: cell-based; conditions: 10 ng/ml, five days
Description: 2×10^5 Total PBMCs or T-cell depleted PBMCs were cultured in a 96-well plate in the presence of ascending doses of Compound 2 ranging from 0 to 10 ng/ml for five days. At day 5, cells were washed and stained for CD19, CD71 and IgM for 30 minutes on ice, then cells were washed with PBS, and stained with viability dye to exclude dead cells.

[4] = test system: Th17 (RORγt) cells; test: Human PBMCs in Th17 polarizing environment, Foxp3 and RORγt expression; format: cell-based
Description: Total human PBMCs isolated from healthy human volunteers were cultured in vitro in a Thl7 polarizing environment as follows: • Day 0: 2×10^5 cells/well were incubated in a 96 round bottomed-well plate (final volume 200 μl) with (i) anti CD3/CD28 microbead for T-cell activation (1 bead/10 cells), (ii) 10 ng/ml IL-6, 2 ng/ml TGFβ and 10 ng/ml IL-23, and (iii) 10 μg/ml anti-IFNγ and 10 μg/ml anti-IL-4. • Day 4: Each well was split into two wells, and 100 μl of media containing the same cytokine/antibody cocktail used at day 0 was added to each well in the presence of ascending doses of Compound 2 (0, 0.1, 0.3, 1, and 3 ng/ml). • Day 9: Cells were washed and stained for surface staining (CD3, CD4), then viability dye to exclude dead cells. Intranuclear staining was performed after cell fixation and permeabilization for transcription factors Foxp3 and RORγt. Cells were washed and fixed for acquisition by Attune NXT flow cytometer. Data were analyzed by FlowJov10.

[5] = test system: MOG35-55-induced murine EAE model; test: MOG35-55-induced murine EAE model, Compound 2 versus Compound 8 (Example 12); format: in vivo, mice; conditions: 3 μg/mouse/day SC, after ten days of treatment
Description: Mice were immunized with 100 μg MOG35-55 emulsified with CFA and pertussis toxin, as described in Example 4. At disease onset (clinical score 1), mice were randomized into two treatment groups, and received 3 μg/mouse/day SC of either Compound 2 or Compound 8.

[6] = test system: NMO mouse model; test: AQP4-p201-p220-induced neuromyelitis optica mouse model, fundoscopy; format: in vivo, mice; conditions: number of eyes since randomization, 3 μg SC daily, 20 eyes
Description: NMO is a CNS autoimmune inflammatory demyelinating disease that causes optico-spinal disorder leading to paralysis and vision loss. NMO mouse model was established by using AQP4-p201-p220 peptide (from Genemed Synthesis Inc.). Briefly, C57BL/6 mice (n=30) were immunized on day 0 with 100 micrograms of the AQP4-p201-p220 peptide emulsified in CFA. Mice were injected subcutaneously at the tail base under anesthesia. On the day of injection (Day 0) and two days later, mice received intraperitoneal injection of pertussis toxin (PTx) in PBS at 200 ng/mouse/dose (0.1 ml).
Prior to immunizing the mice on day 0, both eyes of each of the mice were imaged by fundoscopy. Fundoscopy was employed to study (a) optic disc inflammation, and (b) retinal damage (exudates as evidence of inflammation). Mice were monitored for disease onset daily after one week of immunization (day 7) for clinical symptoms, as per the scoring system developed by Ramadan et al., Brain 2016. Mice with a score of 1.0 or any […] symptoms were immediately randomized into either group A or group B treatment regimens to receive up to 14 days of treatment. Group A (n=10) received Compound 2 3 μg SC daily, and Group B (n=8) served as a control and was treated with a placebo.
Fundoscopy was conducted on day 6 post-immunization and was later performed approximately once every four days, i.e., on days 9, 13, 16, 22, and 26. Each eye was scored for inflammation in the optic disc and retinal damage evident by the appearance of ‘exudates’ (blotchiness) in the fundus image. Eye samples were collected during the onset of disease and post-randomization after at least 9-12 days of treatment and on day 14 (end of study) to assess the histology of both the optic nerve and the retina.

[7] = test system: pristane-induced lupus model; test: Pristane-induced lupus model; format: in vivo, mice; conditions: 3 μg SC daily, interim data
Description: Four-week old female Balb/c mice received 0.5 ml IP injection of pristane (Sigma Aldrich). Eight weeks post pristane injection, all mice tested positive for anti-dsDNA antibody titers (FUJIFILM Wako Pure Chemical Corporation), indicating systemic disease onset. On Day 60, mice were randomized to treatment (n=12) (Compound 2, 3 μg SC daily) or control group (n=11), and treatment was started. Mice were monitored daily for cutaneous lupus symptoms by checking for the appearance of skin lesions.

[8] = four-parameter dose-response model, single dose per mouse

N[C@@H](CNC(=O)Cc1ccc(OCc2cccc3ccccc23)cc1)C(=O)O [Compound 2, (S)-2-Amino-3-(2-(4-(naphthalen-1-ylmethoxy)phenyl)acetamido)propanoic acid]
percentage of CD4+/Foxp3+ T-cells ([1]; isolated T-cells (sorted)): 2.27%
percentage of CD4+/Foxp3+ T-cells ([1]; total PBMC): 5.2%
increase of percentage of CD4+/Foxp3+ T-cells ([1]; isolated T-cells (sorted)): 606%
increase of percentage of CD4+/Foxp3+ T-cells ([1]; total PBMC): 171%
ED50 for FoxP3+/CD4+ T-cells [2, 8]: 4.88 µg
ED90 for FoxP3+/CD4+ T-cells [2, 8]: 82.1 µg
increase of the number of FoxP3+/CD4+ T-cells (T-reg) ([2]; from the lowest dose to the highest dose group): 150%
percent of FoxP3+/CD4+ T-cells, mean ([2]; highest dose group): 25.4%
percent of FoxP3+/CD4+ T-cells, mean ([2]; lowest dose group): 10.7%
percentage of B-reg (CD19+CD71+IgM+) ([3]; T-cell depleted PBMCs): 14.0%
percentage of B-reg (CD19+CD71+IgM+) ([3]; total PBMC cultures): 17.5%
decrease in RORγt cells [4]: 80%
percentage of Th17, mean after treatment [4]: 1.1%
mean clinical score, comparison of the two groups [5]: no statistical difference
Cleared/Clearing eyes (recovery) [6]: 4
Maintained/No change [6]: 14
Worsening conditions [6]: 0
incidence of cutaneous lupus ([7]; after two weeks of treatment): 8%
onset of cutaneous symptoms compared to untreated control mice [7]: delayed by two days

Reference: US20230089267A1, “Compositions and Methods For Reducing Immune Intolerance and Treating Autoimmune Disorders” (Lapix Therapeutics, Inc., priority 2021, published 2023)
